Test [1] has as its target T1, Aurora kinase A (Homo sapiens) (UniProt O14965).
T1 sequence (whole entry): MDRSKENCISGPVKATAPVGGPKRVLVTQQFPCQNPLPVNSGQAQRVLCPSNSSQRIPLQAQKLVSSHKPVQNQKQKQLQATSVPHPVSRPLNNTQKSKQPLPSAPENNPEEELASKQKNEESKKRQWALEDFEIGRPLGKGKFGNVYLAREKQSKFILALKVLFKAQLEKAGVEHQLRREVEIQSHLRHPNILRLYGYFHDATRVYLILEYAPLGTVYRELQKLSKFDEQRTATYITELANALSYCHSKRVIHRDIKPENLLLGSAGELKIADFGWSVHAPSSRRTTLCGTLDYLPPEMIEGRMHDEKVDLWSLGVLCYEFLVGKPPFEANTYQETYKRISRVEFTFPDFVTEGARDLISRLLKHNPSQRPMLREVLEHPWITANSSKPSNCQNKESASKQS
The test is described as follows: Selectivity interaction (Upstate Kinase Profiler service (Millipore)) EUB0000056c STK6. The following applies: at 1 µM.

The target in test [2] is Non-receptor tyrosine-protein kinase TYK2 (Homo sapiens, UniProt P29597). Put plainly: Selectivity interaction (ProQinase) EUB0000171b TYK2.
Test [3] has as its system Tyrosine-protein kinase ABL1 (Homo sapiens), P00519 [H396P]. The test is described as follows: Selectivity interaction (Ambit KINOMEscan and KiNATiv profiling in Jurkat cells) EUB0000090b ABL1. The following applies: at 1 µM. Format: cell-based.
Test [4] has as its target Receptor tyrosine-protein kinase erbB-4 (Homo sapiens, UniProt Q15303). The test is described as follows: Selectivity interaction (KinomeScan (DiscoverX)) EUB0001049a ERBB4. The following applies: at 1 µM.
In test [5] the target is Protein kinase C beta type (Homo sapiens, UniProt P05771). Put plainly: Selectivity interaction (Kinase screening (Upstate/Millipore)) EUB0000604a PRKCB.
Test [6] concerns the target Dual specificity mitogen-activated protein kinase kinase 1 (Homo sapiens, UniProt Q02750). Put plainly: Selectivity interaction (KinomeScan (DiscoverX)) EUB0000045b MAP2K1.
For test [7], the target named is BDNF/NT-3 growth factors receptor (Homo sapiens) (UniProt Q16620). The test is described as follows: Selectivity interaction (KinomeScan (DiscoverX)) EUB0000666a NTRK2. The note with it: at 10 µM.
For test [8], the target named is Mitogen-activated protein kinase 10 (Homo sapiens, UniProt P53779). Put plainly: Selectivity interaction (SelectScreen profiling (Invitrogen)) EUB0000607a MAPK10. The note with it: at 2 µM.
In test [9] the target is Serine/threonine-protein kinase PLK1 (Homo sapiens, UniProt P53350). Put plainly: Selectivity interaction (Kinase panel (Invitrogen)) EUB0000639a PLK1. The following applies: at 200 nM.
Test [10] addresses Ribosomal protein S6 kinase alpha-2 (Homo sapiens) (UniProt Q15349). Put plainly: Selectivity interaction (ActivX KiNativ screen (kinase selectivity in THP-1 cell lysates)) EUB0000639a RPS6KA2. Format: subcellular. The note with it: lysate, at 5 µM.
Test [11] has as its target T2, Mitogen-activated protein kinase kinase kinase 15 (Homo sapiens) (UniProt Q6ZN16).
T2 sequence (whole entry): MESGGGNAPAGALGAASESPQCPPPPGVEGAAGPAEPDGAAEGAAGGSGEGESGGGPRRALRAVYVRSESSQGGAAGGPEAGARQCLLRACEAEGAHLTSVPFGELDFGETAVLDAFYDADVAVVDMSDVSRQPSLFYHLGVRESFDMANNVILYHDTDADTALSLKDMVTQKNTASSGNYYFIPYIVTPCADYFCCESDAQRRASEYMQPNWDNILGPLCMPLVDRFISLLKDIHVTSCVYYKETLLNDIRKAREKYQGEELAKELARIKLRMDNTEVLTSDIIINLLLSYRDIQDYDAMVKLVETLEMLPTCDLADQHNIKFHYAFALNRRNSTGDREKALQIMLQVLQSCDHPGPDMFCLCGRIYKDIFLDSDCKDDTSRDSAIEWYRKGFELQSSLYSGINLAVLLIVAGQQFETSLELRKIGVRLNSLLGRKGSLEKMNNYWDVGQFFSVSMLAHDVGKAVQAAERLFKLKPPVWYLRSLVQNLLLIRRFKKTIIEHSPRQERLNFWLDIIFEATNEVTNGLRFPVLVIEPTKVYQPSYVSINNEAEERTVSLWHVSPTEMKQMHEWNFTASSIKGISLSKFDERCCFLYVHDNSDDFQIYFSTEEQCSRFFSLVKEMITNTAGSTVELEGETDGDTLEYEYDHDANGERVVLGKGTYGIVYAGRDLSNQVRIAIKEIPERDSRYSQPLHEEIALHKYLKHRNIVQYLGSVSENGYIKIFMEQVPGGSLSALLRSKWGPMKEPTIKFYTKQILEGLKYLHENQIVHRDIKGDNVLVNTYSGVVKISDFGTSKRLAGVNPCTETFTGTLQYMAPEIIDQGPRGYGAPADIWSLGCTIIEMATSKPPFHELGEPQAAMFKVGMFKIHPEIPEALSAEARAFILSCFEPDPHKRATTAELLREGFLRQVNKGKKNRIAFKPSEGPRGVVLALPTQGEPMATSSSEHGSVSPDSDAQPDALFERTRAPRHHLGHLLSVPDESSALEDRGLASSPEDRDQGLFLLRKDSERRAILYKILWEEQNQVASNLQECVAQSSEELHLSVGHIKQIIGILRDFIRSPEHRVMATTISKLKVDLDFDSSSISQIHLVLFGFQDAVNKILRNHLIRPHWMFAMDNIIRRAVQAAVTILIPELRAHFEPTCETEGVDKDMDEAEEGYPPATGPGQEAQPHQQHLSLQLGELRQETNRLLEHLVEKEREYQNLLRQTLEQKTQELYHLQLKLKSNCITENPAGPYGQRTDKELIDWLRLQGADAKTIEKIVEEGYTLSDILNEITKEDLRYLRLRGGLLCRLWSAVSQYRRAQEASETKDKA
Put plainly: Selectivity interaction (KinomeScan (DiscoverX)) EUB0000595a MAP3K15. The note with it: at 10 µM.

Test [12] deals with Ribosomal protein S6 kinase alpha-3 (Homo sapiens, UniProt P51812). Put plainly: Selectivity interaction (ActivX KiNativ screen (ex vivo kinase selectivity in human PBMCs)) EUB0001619a RPS6KA3. The class given is cell-based. The note with it: PBMC, at 1 µM.
The target of test [13] is Serine/threonine-protein kinase WNK1 (Homo sapiens) (UniProt Q9H4A3). Put plainly: Selectivity interaction (ActivX KiNativ screen (ex vivo kinase selectivity in human PBMCs)) EUB0001619a WNK1. The following applies: PBMC, at 1 µM. Format: cell-based.
Test [14] concerns the target Serine/threonine-protein kinase MRCK alpha (Homo sapiens) (UniProt Q5VT25). The test is described as follows: Selectivity interaction (KinomeScan (DiscoverX)) EUB0000618a CDC42BPA. The following applies: at 10 µM.

Dual specificity mitogen-activated protein kinase kinase 1, sequence (Q02750 whole entry): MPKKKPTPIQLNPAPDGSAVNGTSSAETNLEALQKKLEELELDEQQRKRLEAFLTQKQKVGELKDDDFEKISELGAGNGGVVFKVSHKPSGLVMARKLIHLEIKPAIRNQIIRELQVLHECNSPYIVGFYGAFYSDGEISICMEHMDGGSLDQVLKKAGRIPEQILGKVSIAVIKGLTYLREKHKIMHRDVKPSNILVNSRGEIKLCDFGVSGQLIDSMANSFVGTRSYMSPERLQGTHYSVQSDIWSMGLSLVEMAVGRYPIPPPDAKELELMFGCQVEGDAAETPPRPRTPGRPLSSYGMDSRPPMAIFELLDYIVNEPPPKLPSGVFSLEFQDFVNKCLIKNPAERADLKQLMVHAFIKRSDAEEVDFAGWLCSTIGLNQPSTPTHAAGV
Non-receptor tyrosine-protein kinase TYK2, sequence (P29597 whole entry): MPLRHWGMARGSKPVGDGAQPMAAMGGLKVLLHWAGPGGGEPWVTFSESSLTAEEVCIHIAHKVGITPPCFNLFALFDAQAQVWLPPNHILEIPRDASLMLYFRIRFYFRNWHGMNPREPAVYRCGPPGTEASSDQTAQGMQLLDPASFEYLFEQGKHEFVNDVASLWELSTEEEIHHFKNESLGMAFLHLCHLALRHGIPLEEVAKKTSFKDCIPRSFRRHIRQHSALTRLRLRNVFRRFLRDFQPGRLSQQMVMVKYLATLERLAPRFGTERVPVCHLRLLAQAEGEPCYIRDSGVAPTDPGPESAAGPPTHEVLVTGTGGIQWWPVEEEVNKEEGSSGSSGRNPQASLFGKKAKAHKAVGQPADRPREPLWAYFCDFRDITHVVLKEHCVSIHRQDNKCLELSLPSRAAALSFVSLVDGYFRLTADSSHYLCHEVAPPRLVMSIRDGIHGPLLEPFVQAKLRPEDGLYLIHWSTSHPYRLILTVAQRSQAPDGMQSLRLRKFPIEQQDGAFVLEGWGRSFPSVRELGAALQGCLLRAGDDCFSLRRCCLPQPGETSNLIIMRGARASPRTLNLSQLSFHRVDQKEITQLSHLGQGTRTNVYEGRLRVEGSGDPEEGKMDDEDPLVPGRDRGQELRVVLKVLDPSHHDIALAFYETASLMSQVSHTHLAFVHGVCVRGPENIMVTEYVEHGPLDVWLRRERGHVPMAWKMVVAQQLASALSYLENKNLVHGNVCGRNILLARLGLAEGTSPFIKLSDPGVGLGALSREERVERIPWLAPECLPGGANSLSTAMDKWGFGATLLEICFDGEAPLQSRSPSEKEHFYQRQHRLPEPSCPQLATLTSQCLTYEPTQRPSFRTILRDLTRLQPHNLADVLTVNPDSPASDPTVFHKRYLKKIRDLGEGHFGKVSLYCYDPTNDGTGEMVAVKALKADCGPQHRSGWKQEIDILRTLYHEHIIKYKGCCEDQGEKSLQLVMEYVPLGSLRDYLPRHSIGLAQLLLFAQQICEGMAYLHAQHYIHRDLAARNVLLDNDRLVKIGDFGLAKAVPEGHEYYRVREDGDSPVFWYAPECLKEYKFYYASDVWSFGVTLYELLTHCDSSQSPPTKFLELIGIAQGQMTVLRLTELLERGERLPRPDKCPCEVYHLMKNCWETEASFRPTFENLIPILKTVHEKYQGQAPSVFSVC
Serine/threonine-protein kinase PLK1, sequence (P53350 whole entry): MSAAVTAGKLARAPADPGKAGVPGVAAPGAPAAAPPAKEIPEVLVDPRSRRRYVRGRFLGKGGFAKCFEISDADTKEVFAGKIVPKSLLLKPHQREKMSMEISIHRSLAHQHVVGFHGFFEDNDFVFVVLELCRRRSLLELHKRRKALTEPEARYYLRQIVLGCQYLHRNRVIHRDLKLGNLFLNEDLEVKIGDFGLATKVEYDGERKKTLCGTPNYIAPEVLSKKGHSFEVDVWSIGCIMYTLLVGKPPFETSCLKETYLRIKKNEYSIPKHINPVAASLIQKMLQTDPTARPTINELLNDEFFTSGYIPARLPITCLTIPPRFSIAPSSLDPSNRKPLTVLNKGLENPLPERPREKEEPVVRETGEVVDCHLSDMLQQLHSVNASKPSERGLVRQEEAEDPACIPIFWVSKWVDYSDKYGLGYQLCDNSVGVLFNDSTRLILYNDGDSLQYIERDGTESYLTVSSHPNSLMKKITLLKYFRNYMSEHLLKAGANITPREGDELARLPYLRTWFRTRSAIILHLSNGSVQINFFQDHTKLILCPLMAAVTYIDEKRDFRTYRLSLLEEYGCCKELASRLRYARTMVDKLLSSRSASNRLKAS
Ribosomal protein S6 kinase alpha-2 (Homo sapiens), sequence (Q15349 whole entry): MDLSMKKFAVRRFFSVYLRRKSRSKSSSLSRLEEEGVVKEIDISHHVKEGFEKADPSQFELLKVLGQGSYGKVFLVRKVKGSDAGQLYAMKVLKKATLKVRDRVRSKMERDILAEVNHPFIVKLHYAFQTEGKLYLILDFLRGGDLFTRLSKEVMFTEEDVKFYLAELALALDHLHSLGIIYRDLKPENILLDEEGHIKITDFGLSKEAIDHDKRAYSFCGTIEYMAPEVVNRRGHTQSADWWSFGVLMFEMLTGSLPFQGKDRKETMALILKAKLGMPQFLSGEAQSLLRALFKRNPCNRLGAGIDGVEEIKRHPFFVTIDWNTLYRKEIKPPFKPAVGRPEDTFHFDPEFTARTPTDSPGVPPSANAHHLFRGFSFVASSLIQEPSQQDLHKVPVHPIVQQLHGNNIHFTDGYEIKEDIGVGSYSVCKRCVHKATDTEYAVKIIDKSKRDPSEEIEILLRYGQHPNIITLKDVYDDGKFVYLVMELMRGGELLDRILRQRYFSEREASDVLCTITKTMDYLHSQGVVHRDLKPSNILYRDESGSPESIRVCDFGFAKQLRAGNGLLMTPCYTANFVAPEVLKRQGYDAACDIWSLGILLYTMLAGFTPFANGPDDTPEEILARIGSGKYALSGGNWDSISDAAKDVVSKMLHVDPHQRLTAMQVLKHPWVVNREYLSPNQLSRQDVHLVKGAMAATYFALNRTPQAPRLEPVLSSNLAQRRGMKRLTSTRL
Ribosomal protein S6 kinase alpha-3, sequence (P51812 whole entry): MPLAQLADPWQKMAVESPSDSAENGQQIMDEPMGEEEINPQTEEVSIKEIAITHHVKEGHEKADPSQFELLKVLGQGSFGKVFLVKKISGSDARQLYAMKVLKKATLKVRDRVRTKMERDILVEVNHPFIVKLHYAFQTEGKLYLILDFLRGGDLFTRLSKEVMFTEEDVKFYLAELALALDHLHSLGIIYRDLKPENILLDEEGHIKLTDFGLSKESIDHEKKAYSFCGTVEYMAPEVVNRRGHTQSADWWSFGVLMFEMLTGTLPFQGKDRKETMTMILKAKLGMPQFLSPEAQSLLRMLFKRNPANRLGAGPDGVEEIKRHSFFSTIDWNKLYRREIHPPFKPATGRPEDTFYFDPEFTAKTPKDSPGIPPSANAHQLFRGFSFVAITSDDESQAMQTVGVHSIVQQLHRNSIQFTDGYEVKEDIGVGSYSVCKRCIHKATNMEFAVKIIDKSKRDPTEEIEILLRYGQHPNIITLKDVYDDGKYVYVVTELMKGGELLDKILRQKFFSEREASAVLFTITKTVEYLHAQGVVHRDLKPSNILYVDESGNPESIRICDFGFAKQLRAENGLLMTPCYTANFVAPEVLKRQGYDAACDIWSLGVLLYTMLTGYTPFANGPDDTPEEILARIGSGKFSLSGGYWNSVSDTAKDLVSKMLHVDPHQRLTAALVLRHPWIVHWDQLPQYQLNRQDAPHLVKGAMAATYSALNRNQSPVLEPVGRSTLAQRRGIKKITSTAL
Protein kinase C beta type, sequence (P05771 2-671 limits assumed): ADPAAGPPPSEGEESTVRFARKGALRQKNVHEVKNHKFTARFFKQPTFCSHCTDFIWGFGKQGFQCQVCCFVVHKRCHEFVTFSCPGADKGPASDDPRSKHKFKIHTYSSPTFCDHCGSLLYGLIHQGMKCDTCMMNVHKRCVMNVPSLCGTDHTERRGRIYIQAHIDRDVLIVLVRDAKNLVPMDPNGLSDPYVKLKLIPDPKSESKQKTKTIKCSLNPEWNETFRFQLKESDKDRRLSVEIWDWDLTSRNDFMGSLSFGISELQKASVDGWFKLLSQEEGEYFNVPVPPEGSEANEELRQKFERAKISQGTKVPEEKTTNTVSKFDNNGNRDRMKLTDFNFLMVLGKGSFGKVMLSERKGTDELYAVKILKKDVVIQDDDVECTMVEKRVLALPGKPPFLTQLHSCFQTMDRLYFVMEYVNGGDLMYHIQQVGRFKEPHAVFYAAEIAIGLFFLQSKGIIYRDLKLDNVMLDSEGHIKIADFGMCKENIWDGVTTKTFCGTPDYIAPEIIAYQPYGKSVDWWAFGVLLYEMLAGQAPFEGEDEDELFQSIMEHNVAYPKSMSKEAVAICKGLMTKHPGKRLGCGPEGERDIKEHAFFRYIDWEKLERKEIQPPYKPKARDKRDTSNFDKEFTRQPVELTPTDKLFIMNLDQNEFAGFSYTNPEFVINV
Mitogen-activated protein kinase 10, sequence (P53779 whole entry): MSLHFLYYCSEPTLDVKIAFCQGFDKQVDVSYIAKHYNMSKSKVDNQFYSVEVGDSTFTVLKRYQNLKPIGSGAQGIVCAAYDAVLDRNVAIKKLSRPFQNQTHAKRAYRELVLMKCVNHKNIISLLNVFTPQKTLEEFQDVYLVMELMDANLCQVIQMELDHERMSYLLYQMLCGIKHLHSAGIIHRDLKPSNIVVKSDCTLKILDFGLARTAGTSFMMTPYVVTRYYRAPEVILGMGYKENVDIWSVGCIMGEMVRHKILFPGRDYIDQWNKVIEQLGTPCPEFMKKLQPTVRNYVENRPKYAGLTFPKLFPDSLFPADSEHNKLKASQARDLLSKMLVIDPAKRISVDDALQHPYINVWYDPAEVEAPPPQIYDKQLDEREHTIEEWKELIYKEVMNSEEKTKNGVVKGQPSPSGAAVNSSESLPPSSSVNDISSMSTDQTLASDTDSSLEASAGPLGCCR

Regarding `Cc1ccc(-c2ccc3c(ccc4sc5c(c43)NC[C@@H](C)NC5=O)n2)cn1`, the % of inhibition in test [1] is 32%.

Take `C=CC(=O)Nc1cccc(C(=O)Nc2ccc(Nc3cc(-c4[nH]c(SC)nc4C)ccn3)cc2)c1`: the figures for the % of control in [2] (at 1 µM) and in test [2] (at 5 µM) were 77% and 46%, respectively. Take `CN(C)C/C=C/C(=O)Nc1ccc(C(=O)N2CCCC(Nc3ncc(Cl)c(-c4c[nH]c5ccccc45)n3)C2)cc1` (stereo unspecified): the % of control in test [3] turned out to be 100%. In the case of `COc1cc(Nc2nc(C)cc(-c3cnn4nc(OC)ccc34)n2)cc(C(F)(F)F)c1`, in test [4], the % of control was 90%.

Consider `Cc1cnc(Nc2ccc(F)cc2Cl)nc1-c1c[nH]c(C(=O)N[C@H](CO)c2cccc(Cl)c2)c1`, for which, in test [5], the % of inhibition was 4%. `C=CC(=O)Nc1cc(-n2c(=O)ccc3cnc4ccc(-c5ccc(NS(C)(=O)=O)cc5)cc4c32)ccc1C`: the % of control is 100% in test [6] (at 1 µM) and 65% in test [6] (at 10 µM). `O=C(NOC[C@H](O)CO)c1ccc(F)c(F)c1Nc1ccc(I)cc1F` displayed a % of control in test [7] of 100%.

Consider `CNC(=O)Nc1ccc(-c2nc(N3CC4CCC(C3)O4)c3cnn(C4CCC5(CC4)OCCO5)c3n2)cc1`, for which the % of inhibition in [8] is 14%. For `CC[C@@H]1[C@H](F)C(=O)N[C@@H]1COc1nccc2cc(C(N)=O)c(OC)cc12` [ZIMLOVISERTIB], the % of inhibition in test [9] amounted to 4.41%; in test [10], 6.4%. The compound `COCC(=O)NC/C=C/c1ccc2ncnc(Nc3ccc(Oc4ccc(C)nc4)c(C)c3)c2c1` [CP-724714] returned a % of control in test [11] of 100%. Regarding `N#Cc1cccc(-c2c[nH]c3ncnc(N4CCOCC4)c23)c1`, the % of inhibition is -11% in test [12] and -1% in [13]. For `O[C@H]1CC[C@H](Nc2ncc3nc(Nc4c(F)cc(F)cc4F)n([C@H]4CCOC4)c3n2)CC1`, the % of control in test [14] was 100%.

For the origin of these results see ChEMBL document CHEMBL5465560, “Selectivity Literature for EUbOPEN Chemogenomic Library” (2024).
